Laboratory results taken from patent publication US20170234881A1, “METHODS OF DIAGNOSING AND TREATING CANCER” (INSERM ( INSTITUT NATIONAL DE LA SANTÉ ET DE LA RECHERCHE …, priority 2014, published 2017).

Tests used:
[1] = tested on: MCF7 cells; assay: Cell invasion assay (matrigel-coated filters), MCF7; assay type: cell-based, human; conditions: concentration-dependent, level reached
Description: (§1) FIG. 2. OCDO is a tumor promoter in vitro and in vivo and its inhibition contributes to the anti-tumor effects of Tam and DDA. (A, B) Histograms representing the effect of OCDO or 17β-estrogen (E2) on MCF7 (A) and TS/A (B) cell proliferation after 24 h treatment using a colorimetric immunoassay measuring BrDU incorporation in DNA (C, D) Histogram representing the effect of OCDO on MCF7 (C) and TS/A (D) cell invasion. Data are the mean of three separate experiments (±s.e.m), *P<0.05, **P<0.01, ***P<0.001 (Student's t-test). (E, F) Mice were implanted s.c. with MCF7 (E) or TS/A (F) cells and animals (8 per group) were treated s.c. every day starting on the day of implantation with either the solvent vehicle or OCDO (16 μg/kg for MCF7 or 50 μg/kg for TS/A). Animals were monitored for tumour growth twice a week. The data are representative of three independent experiments. The mean tumor volume±s.e.m is shown, *P<0.05, **P<0.01, ***P<0.001 (analysis of variance (ANOVA), Dunnett's post test). (G) Mean (±s.e.m) of Ki67 positive cell number determined from IHC staining of MCF7 tumor sections from (E), n=8, *P<0.05 (Student's t-test) using HistoQuant, Pannoramic Viewer (3DHistech). […]
(§2) Invasion assays were carried out using Bio-Coat migration chambers (BD Falcon) with 8 μm filters previously coated with matrigel. […] The entire membranes were mounted on glass slides, and were counted under a microscope. […]

[2] = tested on: MDA-MB231 cells; assay: Growth of MDA-MB231 tumors implanted s.c. into mice; assay type: in vivo; conditions: human MDA-MB231 tumors, OCDO 16 μg/kg s.c.
Description: as §1, with “The data are representative of three independent experiments. The mean tumor volume±s.e.m is shown, *P<0.05, **P<0.01, ***P<0.001 (analysis of variance (ANOVA), Dunnett's post test).” left out
(§3) Exponentially growing MCF7, ShMCF7, E0771, MDA-MB231, MDA-MB468 and TS/A cells were collected, washed twice in PBS and resuspended in PBS. […] Animals were examined daily, and body weights were measured twice per week. In all the experiments, the tumor volume was determined by direct measurement with a caliper and was calculated using the formula (width^2×length)/2. […]

[3] = tested on: MDA-MB468 cells; assay: Growth of MDA-MB468 tumors implanted s.c. into mice; assay type: in vivo; conditions: human MDA-MB468 tumors, OCDO 16 μg/kg s.c.
Description: as §1, with “The data are representative of three independent experiments. The mean tumor volume±s.e.m is shown, *P<0.05, **P<0.01, ***P<0.001 (analysis of variance (ANOVA), Dunnett's post test).” left out
as §3

[4] = tested on: shHSD2 MCF7 cells; assay: Invasiveness of shHSD2 MCF7 cells (matrigel-coated filters); assay type: cell-based, human; conditions: OCDO 5 μM for 72 h
Description: (§4) FIG. 7. Knock-down of 11βHSD2 decreases cell proliferation, invasion and survival in MCF7 cells as well as tumor growth and OCDO reverses these effects. shC or shHSD2 MCF7 cells were analyzed as followed: (A) The proliferation of sh-C or shHSD2 cells treated or not with OCDO 5 μM 24 h was measured using quantification of DNA BrDU incorporation as described in FIG. 2A. (B) The proliferation of sh-C or shHSD2 cells treated or not with increasing concentration of cortisone for 24 h was measured as in (A). (C) The invasiveness of sh-C or shHSD2 cells treated or not with OCDO 5 μM for 72 h was assayed using matrigel-coated filters. (D) the formation of colony by sh-C or shHSD2 cells treated or not with OCDO 1 μM was quantified as described in FIG. 6F. […] Animals were monitored for tumor growth twice a week. […] (F) Mean (±s.e.m) of Ki67 positive cell number determined from IHC staining of shC or shHSD2 MCF7 tumor sections from (E), n=8, *P<0.05 (Student's t-test) using HistoQuant, Pannoramic Viewer (3DHistech).
as §2

[5] = tested on: sh11HSD2 tumors; assay: Growth of sh11HSD2 MCF7 tumors xenografted in mice; assay type: in vivo
Description: as §4, §3

[6] = tested on: ShC tumors; assay: Ki67 staining of shC MCF7 tumors xenografted in mice; assay type: in vivo; conditions: OCDO treatment
Description: as §4, §3

CC(C)CCC[C@@H](C)[C@H]1CC[C@H]2[C@@H]3CC(=O)[C@@]4(O)C[C@@H](O)CC[C@]4(C)[C@H]3CC[C@]12C [OCDO, 6-oxo-cholestan-3β,5α-diol]
invasiveness compared with the control [1]: 6 fold
tumor growth [2]: stimulates the growth
tumor growth [3]: stimulates the growth
effect on the inhibition of cell invasion mediated by 11βHSD2 knock-down [4]: reversed the inhibition of cell invasion
effect on growth of sh11HSD2 tumors ([5]; immunodeficient mice, subcutaneous OCDO 15 μg/kg, 5 days/week): reversed the growth inhibition of sh11HSD2 tumors to a level similar to the growth of shC tumors
cell proliferation by KI67 staining of tumors ([5]; sh11HSD2 MCF7 tumors, OCDO treatment): reversed the growth inhibition of sh11HSD2 tumors
cell proliferation by KI67 staining of tumors [6]: increased
